Test results taken from patent US5446057A, “Substituted tetrahydropyridine and piperidine carboxylic acids as muscarinic antagonists” (priority 1993, dated 1995).
pIC50: −log10 of the molar value.

Key:
M2 receptors = details: literature; cited from earlier work
m1 receptor = molecular target: T1, m1 receptor (Homo sapiens, UniProt P11229); experiment: [3H]-NMS receptor binding using membranes from CHO cells expressing cloned human muscarinic receptor m1; details: [3H]-NMS 100 pM, pH 7.4, 120 minutes at 25° C.
T1 construct: expressed in transfected cells; host or cells: CHO cells (membranes)
T1 sequence (P11229 1-460): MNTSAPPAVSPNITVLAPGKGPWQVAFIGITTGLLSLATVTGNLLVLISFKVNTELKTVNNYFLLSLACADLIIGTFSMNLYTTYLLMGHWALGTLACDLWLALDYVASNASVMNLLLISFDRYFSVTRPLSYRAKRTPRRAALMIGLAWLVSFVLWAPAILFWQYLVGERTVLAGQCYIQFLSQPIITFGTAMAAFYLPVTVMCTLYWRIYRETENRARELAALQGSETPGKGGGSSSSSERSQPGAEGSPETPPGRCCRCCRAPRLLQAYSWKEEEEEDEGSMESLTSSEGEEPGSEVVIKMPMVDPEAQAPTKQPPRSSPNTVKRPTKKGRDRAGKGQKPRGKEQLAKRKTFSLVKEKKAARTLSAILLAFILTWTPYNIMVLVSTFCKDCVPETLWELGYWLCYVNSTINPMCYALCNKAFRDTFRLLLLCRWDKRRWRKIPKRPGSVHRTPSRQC
Protocol: (§1) [^3 H]-N-methylscopolamine ([^3 H]-NMS) Receptor Binding Using Membranes From Chinese Hamster Ovary (CHO) Cells Selectively Expressing One of the Five Cloned Human Muscarinic Receptors
(§2) Following membrane harvest and storage at -80° C., aliquots of membranes (approximately 10-40 μg protein) are added to 2 mL of 10 mM sodium potassium phosphate buffer, pH 7.4, containing 100 pM [^3 H]-NMS; (78.9 Ci/mmol) and the appropriate test compound. Nonspecific binding is defined as that unaffected by the inclusion of 1 μM atropine. The reaction is initiated by the addition of the membranes and allowed to proceed for 120 minutes at 25° C. with shaking. Termination of the incubation is achieved by rapid vacuum filtration through GF/B Whatman filters using a Brandel Cell Harvester with the filters being washed three times with 5 mL ice-chilled buffer. 10 mL of Beckman Ready Gel scintillation cocktail are added to the filters in vials and the samples are allowed to set overnight before vortexing and counting in a Beckman 800 scintillation counter. IC50 values are calculated using a logit equation.

m2 receptor = molecular target: T2, m2 receptor (Homo sapiens, UniProt P08172); experiment: [3H]-NMS receptor binding using membranes from CHO cells expressing cloned human muscarinic receptor m2; details: [3H]-NMS 100 pM, pH 7.4, 120 minutes at 25° C.
T2 construct: expressed in transfected cells; host or cells: CHO cells (membranes)
T2 sequence (P08172 1-466): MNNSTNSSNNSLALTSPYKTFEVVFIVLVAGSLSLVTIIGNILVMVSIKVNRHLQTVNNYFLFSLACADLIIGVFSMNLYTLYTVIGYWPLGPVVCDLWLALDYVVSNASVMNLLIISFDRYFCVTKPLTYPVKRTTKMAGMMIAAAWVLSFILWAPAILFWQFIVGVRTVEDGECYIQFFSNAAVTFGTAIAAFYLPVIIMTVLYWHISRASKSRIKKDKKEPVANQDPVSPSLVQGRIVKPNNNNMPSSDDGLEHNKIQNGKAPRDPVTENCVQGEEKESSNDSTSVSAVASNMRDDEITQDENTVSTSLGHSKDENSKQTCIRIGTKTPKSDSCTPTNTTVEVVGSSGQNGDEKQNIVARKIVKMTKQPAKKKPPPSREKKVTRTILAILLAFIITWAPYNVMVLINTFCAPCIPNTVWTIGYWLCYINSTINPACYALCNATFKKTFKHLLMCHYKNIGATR
Protocol: as §1, §2

m3 receptor = m3 receptor (Homo sapiens, UniProt P20309); experiment: [3H]-NMS receptor binding using membranes from CHO cells expressing cloned human muscarinic receptor m3; details: [3H]-NMS 100 pM, pH 7.4, 120 minutes at 25° C.
Protocol: as §1, §2

m4 receptor = molecular target: T3, m4 receptor (Homo sapiens, UniProt P08173); experiment: [3H]-NMS receptor binding using membranes from CHO cells expressing cloned human muscarinic receptor m4; details: [3H]-NMS 100 pM, pH 7.4, 120 minutes at 25° C.
T3 construct: expressed in transfected cells; host or cells: CHO cells (membranes)
T3 sequence (P08173 1-479): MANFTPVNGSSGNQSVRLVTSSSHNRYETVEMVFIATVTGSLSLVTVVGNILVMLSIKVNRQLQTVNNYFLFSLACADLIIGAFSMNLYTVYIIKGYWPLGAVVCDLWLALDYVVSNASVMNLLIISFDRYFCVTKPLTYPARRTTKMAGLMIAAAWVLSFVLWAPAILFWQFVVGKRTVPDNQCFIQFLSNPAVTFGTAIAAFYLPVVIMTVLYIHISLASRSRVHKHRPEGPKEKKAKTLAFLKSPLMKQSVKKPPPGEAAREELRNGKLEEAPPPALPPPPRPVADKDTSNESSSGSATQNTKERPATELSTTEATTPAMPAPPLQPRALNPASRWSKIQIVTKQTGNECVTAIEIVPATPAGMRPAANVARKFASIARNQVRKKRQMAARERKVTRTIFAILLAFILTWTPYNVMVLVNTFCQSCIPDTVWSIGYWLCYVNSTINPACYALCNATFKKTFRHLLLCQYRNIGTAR
Protocol: as §1, §2

m5 receptor = molecular target: T4, m5 receptor (Homo sapiens, UniProt P08912); experiment: [3H]-NMS receptor binding using membranes from CHO cells expressing cloned human muscarinic receptor m5; details: [3H]-NMS 100 pM, pH 7.4, 120 minutes at 25° C.
T4 construct: expressed in transfected cells; host or cells: CHO cells (membranes)
T4 sequence (P08912 1-532): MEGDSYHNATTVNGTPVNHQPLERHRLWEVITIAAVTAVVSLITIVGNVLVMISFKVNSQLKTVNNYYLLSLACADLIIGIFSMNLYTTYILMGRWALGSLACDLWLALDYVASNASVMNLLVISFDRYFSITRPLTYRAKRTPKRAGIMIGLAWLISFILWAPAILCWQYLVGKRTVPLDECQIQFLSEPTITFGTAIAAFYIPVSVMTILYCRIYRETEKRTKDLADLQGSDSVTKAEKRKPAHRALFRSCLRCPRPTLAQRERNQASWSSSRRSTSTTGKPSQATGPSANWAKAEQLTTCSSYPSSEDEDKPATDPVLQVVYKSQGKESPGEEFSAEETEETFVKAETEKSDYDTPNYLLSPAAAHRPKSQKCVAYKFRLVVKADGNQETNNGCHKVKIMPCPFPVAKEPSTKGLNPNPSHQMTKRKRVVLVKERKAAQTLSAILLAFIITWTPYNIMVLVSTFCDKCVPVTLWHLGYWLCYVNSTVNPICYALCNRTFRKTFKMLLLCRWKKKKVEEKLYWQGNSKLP
Protocol: as §1, §2

Hm1 = molecular target: T5, Hm1 (Homo sapiens, UniProt P11229); type: cell-based
T5 construct: expressed in transfected cells; host or cells: CHO Hm1 cells
T5 sequence (P11229 1-460): T1 sequence (P11229 1-460)
Protocol: CHO Hm1, Hm3, or Hm5 cells are grown at 37° C. with 5% CO2 in Dulbecco's modified Eagle's medium (DMEM) supplemented with 10% fetal bovine serum and 1% nonessential amino acids. […] After 48 hours, the medium is aspirated and the cells are washed 2 times with 1 mL MEM containing 10 mM LiCl. 0.5 mLMEM/LiCl then is added to each well and allowed to incubate at 37° C. for at least 15 minutes. […] For antagonist experiments, the appropriate antagonist is added simultaneously with carbachol (3 μM for m1, 5 μM for m3, and 3 μM for m5). After waiting at least 15 minutes, the TCA extract is applied to Dowex-formate columns (Biorad AG 1-X8 resin, formate form, 100-200 mesh). The wells are rinsed with 0.5 mL distilled H2 O and also applied to the columns. The columns are washed 4 times with 3 mL 5 mMmyo-inositol and then total [^3 H]-inositol phosphates are eluted into vials with two 2 mL washes of 1 mM ammonium formate containing 0.1M formic acid. Beckman Ready Gel scintillation cocktail (10 mL) is added and the samples counted in a Beckman 2800 scintillation counter. The efficacy of agonists is estimated from the maximal effect of the compounds on PI turnover (expressed as a percent of the stimulation produced by carbachol (1 mM)). EC50 and IC50 values are also calculated for both agonists and antagonists, respectively.

M3 receptors = details: literature; cited from earlier work
[1] = urinary incontinence; cited from earlier work
[2] = tested on: patients with effort myocardial ischemia; details: cited from earlier work

Sequence of m3 receptor (P20309 whole entry): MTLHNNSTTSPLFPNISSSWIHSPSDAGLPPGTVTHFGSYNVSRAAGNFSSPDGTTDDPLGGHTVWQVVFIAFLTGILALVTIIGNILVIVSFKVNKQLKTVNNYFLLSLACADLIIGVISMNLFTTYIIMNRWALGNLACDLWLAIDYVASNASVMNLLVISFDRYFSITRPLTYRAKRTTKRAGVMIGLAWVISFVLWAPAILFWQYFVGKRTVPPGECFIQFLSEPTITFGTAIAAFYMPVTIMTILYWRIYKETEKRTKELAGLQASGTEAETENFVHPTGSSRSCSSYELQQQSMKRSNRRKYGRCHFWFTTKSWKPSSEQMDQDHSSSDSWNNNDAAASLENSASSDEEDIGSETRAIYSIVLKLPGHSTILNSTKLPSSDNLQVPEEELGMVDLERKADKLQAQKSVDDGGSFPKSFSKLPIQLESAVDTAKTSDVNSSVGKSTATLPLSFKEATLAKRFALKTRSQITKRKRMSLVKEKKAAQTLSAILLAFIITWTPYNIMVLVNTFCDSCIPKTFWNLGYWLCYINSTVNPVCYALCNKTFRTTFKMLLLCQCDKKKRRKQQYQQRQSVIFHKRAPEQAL

SMILES	pIC50 (m1 receptor)	pIC50 (m2 receptor)	pIC50 (m3 receptor)	pIC50 (m4 receptor)	pIC50 (m5 receptor)	other results
CCN(CC)CC1CCCCN1CC(=O)N1c2ccccc2C(=O)Nc2cccnc21 (stereo not shown) [AF-DX 116]	–	–	–	–	–	affinity for M2 receptors (M2 receptors): high affinity
CCN1CCC(c2ccccc2)=C(C(=O)N(C)C)C1 [C, 1-Ethyl-1,2,5,6-tetrahydro-4-phenyl-N,N-dimethyl-3-pyridinecarboxamide]	5.30	4.91	5.05	4.87	5.22	muscarinic antagonism (in words) (Hm1): potent antagonists
CCN1CCC(c2ccccc2)=C(C(=O)NC)C1 [D, 1-Ethyl-1,2,5,6-tetrahydro-4-phenyl-N-methyl-3-pyridinecarboxamide]	4.68	4.46	4.41	4.14	4.31	–
COC(=O)C1=C(C)CCN(C)C1 [E, 1,4-Dimethyl-1,2,5,6-tetrahydro-3-pyridinecarboxylic acid, methyl ester]	4.21	4.98	4.17	< 4.30	4.13	–
CCN1CCC(c2ccccc2)=C(C(=O)OC(C)C)C1 [Example 4, 1-Ethyl-1,2,5,6-tetrahydro-4-phenyl-3-pyridinecarboxylic acid, 1-methylethyl ester]	–	6.46	–	6.19	–	–
C[N+]1(C)CCC(OC(=O)C(c2ccccc2)c2ccccc2)CC1 [Example 4-DAMP, 4-diphenylacetoxy-N-methylpiperidine methobromide]	–	–	–	–	–	affinity for M3 receptors (M3 receptors): high affinity
CCN1CC=C(c2ccccc2)C(C(=O)OCCc2ccc(Cl)cc2)C1 (stereo not shown) [Example 16, 1-Ethyl-1,2,3,6-tetrahydro-4-phenyl-3-pyridinecarboxylic acid, 2-(4-chlorophenyl)ethyl ester]	–	5.89	–	5.73	–	–
CCCCC1=C(C(=O)OC)CN(CCC)CC1 [F, 1-Propyl-1,2,5,6-tetrahydro-4-butyl-3-pyridinecarboxylic acid, methyl ester]	4.76	5.27	4.83	4.30	4.38	–
O[Si](CCCN1CCCCC1)(c1ccccc1)C1CCCCC1 (stereo not shown) [hexahydrosiladifenidol]	–	–	–	–	–	affinity for M3 receptors (M3 receptors): high affinity
COc1ccccc1CNCCCCCCNCCCCCCCCNCCCCCCNCc1ccccc1OC [methoctramine]	–	–	–	–	–	affinity for M2 receptors (M2 receptors): high affinity
CCN(CC)CC#CCOC(=O)C(O)(c1ccccc1)C1CCCCC1 (stereo not shown) [oxybutynin]	–	–	–	–	–	side effects limiting use [1]: mydriasis, dry mouth
CN1CCN(CC(=O)N2c3ccccc3C(=O)Nc3cccnc32)CC1 [pirenzepine]	–	–	–	–	–	exercise tolerance [2]: improve exercise tolerance
